Data set [1] can be described thus: Cell viability for BIA and analogues, HT1080 cell line. The note with it: human, HT1080 fibrosarcoma cells; for viability at 5 µM: HT1080, 5 uM; for viability at 10 µM: HT1080, 10 uM. It counts as cell-based. The method, then: HT1080 MDA-MB-231, SKBR3 and MCF7 cell lines were cultured in a 37° C., 5% CO2 incubator in a medium with 10% Fetal Bovine Serum, 1% penicillin and streptomycin (100 U) added to DMEM.
(§1) The compound prepared in Example 15 was treated with HT1080 fibrosarcoma cell line at 5 μM and 10 μM and cell viability was measured. In addition, the compound prepared in Example 15 on the DU145 prostate cancer cell line was treated with 10 μM, 20 μM, and 30 μM and cell viability was measured (see Table 2, Table 3).

Data set [2] in a line: Cell viability for BIA and analogues, DU145 cell line. It counts as cell-based. The following applies: human; for viability at 10 µM: DU145, 10 uM; for viability at 20 µM: DU145, 20 uM; for viability: DU145, 50 rpm. The method, then: as §1

Where a name gives a salt, the structure may show the parent alone.

As usually defined, the viability is a read-out of living cells in per cent, often relative to untreated cells. `Nc1ccccc1-c1cc(-c2cccc(C(F)(F)F)c2)ncn1`: in data set [1], the viability at 5 µM was 99.6% and the viability at 10 µM stood at 97.3%. Further, in data set [2], the viability at 10 µM came to 95.3%, the viability at 20 µM was 87.8% and the viability turned out to be 74.8%.
Consider `Nc1ccccc1C(=O)/C=C/c1ccccc1` [GM-90130, (E)-1-(2-aminophenyl)-3-phenylprop-2-en-1-one], for which, in data set [1], the viability at 5 µM is 99.5% and the viability at 10 µM is 31.7%. In data set [2], the viability at 10 µM was determined as 78.7%, the viability at 20 µM is 79.4% and the viability amounted to 48.3%.
For `COc1cccc(/C=C/C(=O)c2ccccc2N)c1` [GM-90131, (E)-1-(2-aminophenyl)-3-(3-methoxyphenyl)prop-2-en-1-one] the same measures were 101%, 37.4%, 81.5%, 74% and 33.2%.
For `Nc1ccccc1C(=O)/C=C/c1cccc(Br)c1` [GM-90132, (E)-1-(2-aminophenyl)-3-(3-bromophenyl)prop-2-en-1-one] the same measures were 100%, 30.9%, 81.5%, 71.2% and 19.9%.
In the case of `Nc1ccccc1C(=O)/C=C/c1ccc([N+](=O)[O-])cc1` [GM-90133, (E)-1-(2-aminophenyl)-3-(4-nitrophenyl)prop-2-en-1-one], in data set [1], the viability at 5 µM is 101% and the viability at 10 µM was found to be 54.9%. In data set [2], the viability at 10 µM stood at 50.5%, the viability at 20 µM worked out at 35.2% and the viability is 26.8%.
In the case of `COc1ccccc1C(=O)/C=C/c1cccc([N+](=O)[O-])c1` [GM-90134, (E)-1-(2-methoxyphenyl)-3-(3-nitrophenyl)prop-2-en-1-one], in data set [1], the viability at 5 µM came out at 99.1% and the viability at 10 µM amounted to 96.6%. Moreover, in data set [2], the viability at 10 µM is 31.5%, the viability at 20 µM is 25.4% and the viability was found to be 22.8%.
For `O=C(/C=C/c1cccc([N+](=O)[O-])c1)c1ccccc1O` [GM-90135, (E)-1-(2-hydroxyphenyl)-3-(3-nitrophenyl)prop-2-en-1-one] the same measures were 99.9%, 96.8%, 88.5%, 87.3% and 64.5%.
For `Nc1ccccc1C(=O)/C=C/c1ccc(OC(F)(F)F)cc1` [GM-90222, (E)-1-(2-aminophenyl)-3-(4-(trifluoromethoxy)phenyl)prop-2-en-1-one] the same measures were 109%, 92%, 40.7%, 31.3% and 28.9%.
For `Nc1ccccc1C(=O)/C=C/c1ccc(F)cc1F` [GM-90223, (E)-1-(2-aminophenyl)-3-(2,4-difluorophenyl)prop-2-en-1-one] the same measures were 93.8%, 86%, 26.5%, 26.3% and 21.1%.
With `CCOc1cc(F)ccc1/C=C/C(=O)c1ccccc1N` [GM-90224, (E)-1-(2-aminophenyl)-3-(2-ethoxy-4-fluorophenyl)prop-2-en-1-one], in data set [1], the viability at 5 µM worked out at 108% and the viability at 10 µM worked out at 99.7%. In data set [2], the viability at 10 µM turned out to be 90.5%, the viability at 20 µM came out at 90% and the viability came to 75.8%.
For `Nc1ccccc1C(=O)/C=C/c1ccc2ccccc2c1` [GM-90225, (E)-1-(2-aminophenyl)-3-(naphthalen-2-yl)prop-2-en-1-one] the same measures were 70.5%, 43.5%, 87.4%, 79.4% and 71.2%.
For the molecule `Nc1ccccc1C(=O)/C=C/c1ccc(C(F)(F)F)cc1` [GM-90226, (E)-1-(2-aminophenyl)-3-(4-(trifluoromethyl)phenyl)prop-2-en-1-one], in data set [1], the viability at 5 µM came out at 83.9% and the viability at 10 µM was 15.4%. In data set [2], the viability at 10 µM came to 68.1%, the viability at 20 µM came out at 46.8% and the viability was 11.8%.
`Cc1ccc(/C=C/C(=O)c2ccccc2N)cc1` [GM-90227, (E)-1-(2-aminophenyl)-3-(p-tolyl)prop-2-en-1-one]: in data set [1], the viability at 5 µM was found to be 108% and the viability at 10 µM is 96.3%. Besides, in data set [2], the viability at 10 µM is 43.3%, the viability at 20 µM was 36.1% and the viability came to 28.2%.
On the same counts, the results for `CCOc1ccc([N+](=O)[O-])cc1/C=C/C(=O)c1ccccc1N` [GM-90229, (E)-1-(2-aminophenyl)-3-(2-ethoxy-5-nitrophenyl)prop-2-en-1-one] are 64.4%, 15.7%, 53.1%, 40.5% and 21.1%.
Turning to `CCOc1ccc([N+](=O)[O-])cc1C(O)CC(=O)c1ccccc1N` (stereo not shown) [GM-90230, 1-(2-aminophenyl)-3-(2-ethoxy-5-nitrophenyl)-3-hydroxypropan-1-one], in data set [1], the viability at 5 µM turned out to be 108% and the viability at 10 µM stood at 98.8%. For the same molecule, in data set [2], the viability at 10 µM worked out at 66.3%, the viability at 20 µM came to 29.1% and the viability is 29.3%.
With `CC(C)(C)c1ccc(/C=C/C(=O)c2ccccc2N)cc1` [GM-90243, (E)-1-(2-aminophenyl)-3-(4-(tert-butyl)phenyl)prop-2-en-1-one], in data set [1], the viability at 5 µM was determined as 66.8% and the viability at 10 µM was 39.2%. In addition, in data set [2], the viability at 10 µM turned out to be 31.8%, the viability at 20 µM was 28.2% and the viability was determined as 14.3%.
For `COc1cc(N)c(C(=O)/C=C/c2cccc(Br)c2)cc1OC` [GM-90255, (E)-1-(2-amino-4,5-dimethoxyphenyl)-3-(3-bromophenyl)prop-2-en-1-one] the same measures were 88.1%, 33.4%, 88.7%, 70.2% and 66.4%.
On the same counts, the results for `COc1cccc(/C=C/C(=O)c2cc(OC)c(OC)cc2N)c1` [GM-90256, (E)-1-(2-amino-4,5-dimethoxyphenyl)-3-(3-methoxyphenyl)prop-2-en-1-one] are 82.4%, 46.3%, 76.3%, 60.2% and 54.9%.
As to `Nc1ccccc1C(=O)/C=C/c1cc(O)cc(Br)c1` [GM-90281, (E)-1-(2-aminophenyl)-3-(3-bromo-5-hydroxyphenyl)prop-2-en-1-one], in data set [1], the viability at 5 µM came to 11.4% and the viability at 10 µM worked out at 11.1%. In addition, in data set [2], the viability at 10 µM came to 77.4%, the viability at 20 µM was 76.4% and the viability came to 67%.
On the same counts, the results for `N#Cc1cccc(/C=C/C(=O)c2ccccc2N)c1` [GM-90282, (E)-3-(3-(2-aminophenyl)-3-oxoprop-1-en-1-yl)benzonitrile] are 12.2%, 7.14%, 72.9%, 53.4% and 9.57%.
On the same counts, the results for `Nc1ccccc1C(=O)/C=C/c1cccc(C(F)(F)F)c1` [GM-90283, (E)-1-(2-aminophenyl)-3-(3-(trifluoromethyl)phenyl)prop-2-en-1-one] are 18.1%, 11.9%, 59.9%, 33.1% and 22.9%.
For `Cc1cccc(/C=C/C(=O)c2ccccc2N)c1` [GM-90284, (E)-1-(2-aminophenyl)-3-(m-tolyl)prop-2-en-1-one] the same measures were 86.4%, 18.8%, 88.4%, 81% and 79%.
`Nc1ccccc1C(=O)/C=C/c1cccnc1` [GM-90285, (E)-1-(2-aminophenyl)-3-(pyridin-3-yl)prop-2-en-1-one]: in data set [1], the viability at 5 µM worked out at 71.5% and the viability at 10 µM turned out to be 8.35%. Besides, in data set [2], the viability at 10 µM worked out at 83.5%, the viability at 20 µM was 82.8% and the viability amounted to 78.8%.
In the case of `COc1ccc(C(=O)/C=C/c2cccc([N+](=O)[O-])c2)c(N)c1` [GM-90297, (E)-1-(2-amino-4-methoxyphenyl)-3-(3-nitrophenyl)prop-2-en-1-one], in data set [1], the viability at 5 µM amounted to 93.3% and the viability at 10 µM was 18.2%. Further, in data set [2], the viability at 10 µM came out at 85.7%, the viability at 20 µM worked out at 87.2% and the viability amounted to 83%.
For `CNC(=O)c1cccc(/C=C/C(=O)c2ccccc2N)c1` [GM-90300, (E)-3-(3-(2-aminophenyl)-3-oxoprop-1-en-1-yl)-N-methyl benzamide] the same measures were 99.5%, 23.4%, 62.6%, 58.5% and 54.5%.
For `Nc1cccc(/C=C/C(=O)c2ccccc2N)c1` [GM-90315, (E)-1-(2-aminophenyl)-3-(3-aminophenyl)prop-2-en-1-one Hydrochloride] the same measures were 41.1%, 11.2%, 98%, 97.9% and 88.9%.
